Experimental data from ChEMBL document CHEMBL1201862, “PubChem BioAssay data set” (2004).
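Results reflect a 48-hour exposure of cells in 96-well plates to compound at five concentrations. At the GI50, growth is halved.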 Activity calls are given as the source filed them. Rule as the data show it: active = GI50 up to about 1.1 µM and inactive = higher.

Assays:
Experiment in all cases: DTP human tumour cell line panel, 48 h
[1] = system: KM12
[2] = system: M14
[3] = system: MDA-MB-435
[4] = system: MOLT-4
[5] = system: Malme-3M
[6] = system: NCI-H522
[7] = system: NCI/ADR-RES
[8] = system: OVCAR-5
[9] = system: RXF 393
[10] = system: SF-268
[11] = system: SF-295
[12] = system: SF-539
[13] = system: SW-620
[14] = system: UACC-62
[15] = system: EKVX
[16] = system: HCC 2998
[17] = system: IGROV-1
[18] = system: NCI-H226
[19] = system: SNB-75
[20] = system: BT-549

Row | SMILES | GI50 [1] | GI50 [2] | GI50 [3] | GI50 [4] | GI50 [5] | GI50 [6] | GI50 [7] | GI50 [8] | GI50 [9] | GI50 [10] | GI50 [11] | GI50 [12] | GI50 [13] | GI50 [14] | GI50 [15] | GI50 [16] | GI50 [17] | GI50 [18] | GI50 [19] | GI50 [20]
1 | COC(=O)[C@@H]1CCCN1CCN1CCC[C@H]1C(=O)OC | > 100 µM (inactive) | > 100 µM (inactive) | > 100 µM (inactive) | > 100 µM (inactive) | > 100 µM (inactive) | > 100 µM (inactive) | > 100 µM (inactive) | > 100 µM (inactive) | > 100 µM (inactive) | > 100 µM (inactive) | > 100 µM (inactive) | > 100 µM (inactive) | > 100 µM (inactive) | > 100 µM (inactive) |  |  |  |  |  | 
2 | COc1ccc(/C=C/c2ccnc3ccccc23)cc1OC | 14.7 µM (inactive) | 20 µM (inactive) | 15.1 µM (inactive) | 19.1 µM (inactive) | 16.9 µM (inactive) | 5.65 µM (inactive) | 14 µM (inactive) | 12.9 µM (inactive) | 13.1 µM (inactive) | 14 µM (inactive) | 13.8 µM (inactive) | 15.8 µM (inactive) | 15.7 µM (inactive) | 14.9 µM (inactive) | 14.6 µM (inactive) | 39 µM (inactive) | 15.5 µM (inactive) | 22.9 µM (inactive) |  | 
3 | O=Cc1cc2c(s1)C(=O)c1sccc1C2=O | 2.68 µM (inactive) | 0.0403 µM (active) | 0.0187 µM (active) | 1.23 µM (inactive) | 0.368 µM (active) | 0.785 µM (active) | 0.188 µM (active) | 0.865 µM (active) | 0.337 µM (active) | 0.247 µM (active) | 0.169 µM (active) | 0.215 µM (active) | 0.257 µM (active) | 0.248 µM (active) | 1.61 µM (inactive) | 1.56 µM (inactive) | 1.49 µM (inactive) | 1.79 µM (inactive) | 0.19 µM (active) | 
4 | CCOc1cc(NC(C)=O)ccc1C(=O)NN1C(=O)/C(=C/c2ccc(Cl)cc2)N=C1c1ccccc1 | 34.3 µM (inactive) | 48.5 µM (inactive) | 35.6 µM (inactive) | 17.7 µM (inactive) |  |  | 42 µM (inactive) | > 100 µM (inactive) | 33 µM (inactive) |  | 38.5 µM (inactive) | 90.2 µM (inactive) | > 100 µM (inactive) |  | 26 µM (inactive) |  | 18.1 µM (inactive) | 42.8 µM (inactive) | 40.3 µM (inactive) | 47.4 µM (inactive)
5 | CC(=O)C1=C(C)N2C(=NC3=C(CCc4ccccc43)C2c2ccc(F)cc2)S1 (centres undefined) | > 100 µM (inactive) | > 100 µM (inactive) | > 100 µM (inactive) | 2.59 µM (inactive) |  |  | 37.3 µM (inactive) | > 100 µM (inactive) | 52.6 µM (inactive) | 61 µM (inactive) | > 100 µM (inactive) | 80.5 µM (inactive) | > 100 µM (inactive) | 78.2 µM (inactive) | 24 µM (inactive) | 83.9 µM (inactive) | 27.7 µM (inactive) | > 100 µM (inactive) | 25.6 µM (inactive) | 93.5 µM (inactive)
6 | CC(NC(=O)c1c(O)[nH]c(=S)[nH]c1=O)c1ccc([N+](=O)[O-])cc1 (centres undefined) | 47.6 µM (inactive) | > 100 µM (inactive) | > 100 µM (inactive) | 29.1 µM (inactive) |  |  |  | > 100 µM (inactive) | > 100 µM (inactive) | 52.8 µM (inactive) | > 100 µM (inactive) | 82.2 µM (inactive) | > 100 µM (inactive) | 77.3 µM (inactive) | > 100 µM (inactive) | 35.8 µM (inactive) | > 100 µM (inactive) | 70.1 µM (inactive) | 17.9 µM (inactive) | > 100 µM (inactive)
7 | Cc1cc(S(=O)(=O)Nc2nc(N)nc(N(C)C)n2)c(S)cc1Cl | > 10 µM (inactive) | > 10 µM (inactive) |  | > 10 µM (inactive) | > 10 µM (inactive) | > 10 µM (inactive) | > 10 µM (inactive) | > 10 µM (inactive) | > 10 µM (inactive) | > 10 µM (inactive) | > 10 µM (inactive) | > 10 µM (inactive) | > 10 µM (inactive) |  | > 10 µM (inactive) | > 10 µM (inactive) | > 10 µM (inactive) | > 10 µM (inactive) | > 10 µM (inactive) | > 10 µM (inactive)
8 | COc1c(Br)cc(/C=C(\C#N)c2ccccn2)cc1Br | > 100 µM (inactive) | > 100 µM (inactive) |  | > 100 µM (inactive) | 44.7 µM (inactive) | > 100 µM (inactive) | 39.4 µM (inactive) | > 100 µM (inactive) | 22.8 µM (inactive) | 23.2 µM (inactive) | 19.2 µM (inactive) | 33.4 µM (inactive) | > 100 µM (inactive) | 10.8 µM (inactive) | 1.26 µM (inactive) | > 100 µM (inactive) | 51.4 µM (inactive) | 48.4 µM (inactive) | 0.891 µM (active) | 22.8 µM (inactive)
9 | O=C(CCCN1CCc2[nH]c3cc(F)ccc3c2C1)c1ccc(F)cc1 | 13.9 µM (inactive) | 9.82 µM (inactive) | 12.9 µM (inactive) | 13 µM (inactive) | 12.6 µM (inactive) | 20.7 µM (inactive) | 14.2 µM (inactive) | 12.2 µM (inactive) | 14.4 µM (inactive) | 13.1 µM (inactive) | 17.4 µM (inactive) | 16.7 µM (inactive) | > 100 µM (inactive) | 12.7 µM (inactive) | 14.8 µM (inactive) | 3.33 µM (inactive) | 16.4 µM (inactive) | 18.7 µM (inactive) | 11 µM (inactive) | 
10 | C=C1C(=O)OC2C1CCC(C)C1(O)C=CC(=O)C21C (centres undefined) | > 10 µM (inactive) |  | > 10 µM (inactive) | 3.1 µM (inactive) | > 10 µM (inactive) |  | 3.95 µM (inactive) |  | 9.31 µM (inactive) | > 10 µM (inactive) | > 10 µM (inactive) | > 10 µM (inactive) | 3.44 µM (inactive) | 6.68 µM (inactive) | > 10 µM (inactive) | > 10 µM (inactive) | > 10 µM (inactive) | > 10 µM (inactive) | 6.65 µM (inactive) | 
11 | CC(C)(C)c1ccc2c(c1)C(=O)c1ccccc1C2=O | 36 µM (inactive) | > 100 µM (inactive) | 35.9 µM (inactive) | 24.6 µM (inactive) | > 100 µM (inactive) |  | 32.7 µM (inactive) | 82.6 µM (inactive) | 26.1 µM (inactive) | 39.4 µM (inactive) | 56.4 µM (inactive) | > 100 µM (inactive) | > 100 µM (inactive) | 42 µM (inactive) | 19 µM (inactive) |  | 33 µM (inactive) | 35.5 µM (inactive) | 16.2 µM (inactive) | 24.8 µM (inactive)
12 | COc1cc(/C=C2/C(=O)N(C(=O)OCc3ccccc3)C(Cc3cc(OC)c(OC)c(C)c3OC)C(=O)N2Cc2ccccc2)c(OC)c(C)c1OC (centres undefined) | > 100 µM (inactive) | > 100 µM (inactive) |  | 8.09 µM (inactive) | 76.4 µM (inactive) | 11 µM (inactive) |  | > 100 µM (inactive) | > 100 µM (inactive) | > 100 µM (inactive) | > 100 µM (inactive) | > 100 µM (inactive) | > 100 µM (inactive) | > 100 µM (inactive) | > 100 µM (inactive) | > 100 µM (inactive) | > 100 µM (inactive) | 2 µM (inactive) | > 100 µM (inactive) | 
13 | CC(C)C[C@H](NC(=O)[C@@H](N)Cc1cccc2ccccc12)B(O)O | 0.0281 µM (active) |  | < 0.0134 µM (active) | < 0.0177 µM (active) | 0.0224 µM (active) | 0.187 µM (active) |  | 0.0272 µM (active) | < 0.017 µM (active) |  | < 0.0241 µM (active) | 0.0143 µM (active) | < 0.015 µM (active) | 0.0482 µM (active) |  | 0.173 µM (active) | 0.0665 µM (active) | < 0.0132 µM (active) | 0.0259 µM (active) | 0.0203 µM (active)
14 | N/C(=N\O)N/N=C\c1c2ccccc2c(Cl)c2ccccc12 | 4.85 µM (inactive) | 12.1 µM (inactive) |  | 4.18 µM (inactive) | 4.6 µM (inactive) | 3.8 µM (inactive) |  | 3.05 µM (inactive) | 1.22 µM (inactive) | 7.5 µM (inactive) | 2.75 µM (inactive) | 9.62 µM (inactive) | 5.22 µM (inactive) | 1.92 µM (inactive) | 3.03 µM (inactive) | 3.66 µM (inactive) | 3.38 µM (inactive) | 2.13 µM (inactive) | 12.7 µM (inactive) | 
15 | CCOC(=O)C(=O)/C(=C/n1c(=S)[nH]c2ccc([N+](=O)[O-])cc21)C(=O)OCC | > 100 µM (inactive) | > 100 µM (inactive) | > 100 µM (inactive) | > 100 µM (inactive) |  |  | > 100 µM (inactive) | > 100 µM (inactive) | > 100 µM (inactive) | > 100 µM (inactive) | > 100 µM (inactive) | > 100 µM (inactive) | > 100 µM (inactive) | > 100 µM (inactive) |  | > 100 µM (inactive) |  | 60 µM (inactive) | 90.4 µM (inactive) | 
16 | C[C@@]12c3c4ccc(C=O)c3Oc3ccc(C=O)c(c31)Oc1c(C=O)ccc(c12)O4 | > 100 µM (inactive) | > 100 µM (inactive) | > 100 µM (inactive) | > 100 µM (inactive) | > 100 µM (inactive) |  | > 100 µM (inactive) | > 100 µM (inactive) |  | > 100 µM (inactive) | > 100 µM (inactive) | > 100 µM (inactive) | > 100 µM (inactive) | > 100 µM (inactive) | > 100 µM (inactive) | > 100 µM (inactive) | > 100 µM (inactive) | > 100 µM (inactive) | > 100 µM (inactive) | > 100 µM (inactive)
